From paper PMC3784060 (Cancer Chemotherapy and Pharmacology, 2013)
Read-outs that look alike come from different tables or passages of the source.

Key:
[1] = tested on: acute leukemia (WBC count); settings: cited from earlier work
[2] = tested on: relapsed/refractory AML and ALL; assay: phase II study in acute leukemia: response, blast/WBC reduction, time to progression; format: in vivo, human
Method: Each cycle lasted 21 days. Patient could continue treatment on the study in the absence of disease progression or unacceptable toxicity. The next cycle of therapy could start if non-hematologic toxicity from previous cycle recovered to ≤grade 1, and dose delay of up to 3 weeks was allowed for recovery. Permanent dose reduction was required for any ≥grade 3 clinically significant non-hematologic adverse event (70 mg/m^2 → 50 mg/m^2; 50 mg/m^2 → 40 mg/m^2; 40 mg/m^2 → 30 mg/m^2; 30 mg/m^2 → discontinue). To allow for continued treatment of subjects whose cytopenias were due to leukemia and not due to drug toxicity, subsequent cycles of treatment were allowed if absolute neutrophil count (ANC) ≥0.5 × 10^9/L or for ANC <0.5 × 10^9/L but no more than 20 % below the baseline pretreatment levels and platelet count ≥20 × 10^9/L or platelets <20 × 10^9/L but no more than 20 % below the baseline pretreatment levels. Anti-emetic prophylaxis including serotonin-receptor antagonist, metoclopramide, or prochloperazine with or without dexamethasone was allowed. […] Dexamethasone 20 mg IV was given early if symptoms of cytokine release syndrome were observed.
Response was assessed by bone marrow (BM) examination on day 21 of cycles 1 and 2, and every 6 weeks thereafter until complete remission or progressive disease (PD). Response was determined according to the revised recommendations of the International Working Group (IWG) for AML [33]. Toxicities were graded according to the National Cancer Institute Common Terminology Criteria for Adverse Events (NCI CTCAE), version 3.0 (http://ctep.cancer.gov/protocolDevelopment/electronic_applications/docs/ctcaev3.pdf). Hematologic and chemistry profiles were monitored on day 1 and 2 of each cycle or until resolution of acute toxicities and subsequently at least once a week or more frequently depending on the individual patient’s needs.
The primary efficacy endpoint of the study was the ORR, including complete remission (CR), CR with incomplete count recovery (CRi), and partial remission.

[3] = AML patients, all treated subjects

Compound	patients with >50 % decrease in WBC count ([1]; 1-h bolus for 3 days) [%]	patients with >50 % decrease in WBC count ([1]; hybrid schedule for 3 days)	Beta Posterior Mean (Bayes estimate of the response rate) [2, 3]	Number of Non-responders [2, 3]	Number of Responders [2, 3]	Posterior Probability (This treatment is better) [2, 3]	Observed Response Rate (%) ([2]; AML patients, all treated subjects, frequentist approach)	Median time to progression, Estimate ([2]; all treated AML patients) [weeks]	Number of Events (progression) ([2]; all treated AML patients)	Hazard Ratio, Estimate (Mylotarg/Dinaciclib) ([2]; time to progression, all treated AML patients)
CN1CC[C@H](c2c(O)cc(O)c3c(=O)cc(-c4ccccc4Cl)oc23)[C@H](O)C1 [flavopiridol]	~44	approximately 83%								
gemtuzumab ozogamicin [Mylotarg (GO), reference compound]			0.167	7	1	0.801	12.500	7.57	7	0.71
